Measurements reported in US5466682A, “Acylamino-alkyliden-hydroxy-bisphosphonic acids esters and salts thereof, wherein the acyl group is derived from an acid having antiinflammatory activity” (Istituto Gentili S.p.A., priority 1991, dated 1995).

How the values were obtained:
[1] = test system: bone calcium loss induced by retinoid; experiment: Bone calcium loss induced by retinoid in thyroparathyroidectomized rat (plasma Ca); format: in vivo, rat (male); conditions: thyroparathyroidectomized rats, retinoid s.c. 3 days, 24 hours after last administration; for Plasmatic Ca increase after retinoid adm.: controls 1.11 ± 0.03; for % inhibition (of plasmatic Ca increase after retinoid): versus controls
Method: Male rats weighing about […] are thyroparathyroidectomyzed under Nembutal anaesthesia. The animals are treated with thyroxine on alternate days during all the test. 7 Days after surgery, blood is withdrawn by means of intracardiac puncture and Ca is determined on plasma. […] 24 Hours after the last administration, animals are killed and blood is recovered to determine Ca again.
BONE CALCIUM LOSS INDUCED BY RETINOID IN RAT

Carrageenin Oedema = Carrageenin Oedema in Rat (% protection of paw oedema); format: in vivo, rat (S.D. male); conditions: subcutaneous; for % Protection 2nd hour: 2nd hour after carrageenin; for % Protection 4th hour: 4th hour after carrageenin; for % Protection 6th hour: 6th hour after carrageenin
Method: Carrageenin Oedema in Rat
Carrageenin+Ibuprofen (11 and 5.5 mg/kg)
Carrageenin+compound of example 8 (Br-Ax) (25.0 and 12.5 mg/kg)
Carrageenin+compound of example 7 (Br-Ab) (25.0 and 12.5 mg/kg)
Note: Ibuprofen doses are equimolar to the corresponding Br-Ab and Br-Ax doses.
S.D. male rats weighing 160-180 g
1) Control - (Carrageenin only)
Each group consisted of 5 males, trying to obtain the most homogeneous total weight for each group. The animals were inoculated subcutaneously with the test solutions homogenized in 5% gum Arabic which had been sterilized by filtration with "Acrodisc" Gelman with […] pores.
After 1 hour the animals were […] 0.1 ml of 1% carrageenin in sterile saline. Carrageenin was kept under stirring by means of a magnetic stirred, to make it as homogeneous as possible.
At the same time, the basal paw volumes were determined by means of a plethysmograph, so as to make possible to repeat the measurements in the most reliable way in the subsequent hours.
2 Hours after carrageenin inoculation, the measure of paw volumes was determined (2nd hour). Subsequently, said measurement was effected at the 4th and 6th hours from inoculation. After that, the % protection was calculated by means of the following formula: [formula]

Structure (SMILES) | Plasmatic Ca increase after retinoid adm. [1] [mmol/lt] | % inhibition (of plasmatic Ca increase after retinoid) [1] [%] | % Protection 2nd hour (Carrageenin Oedema; 12.5 mg/kg) [%] | % Protection 4th hour (Carrageenin Oedema; 12.5 mg/kg) [%] | % Protection 6th hour (Carrageenin Oedema; 12.5 mg/kg) [%] | % Protection 2nd hour (Carrageenin Oedema; 25.0 mg/kg) [%] | % Protection 4th hour (Carrageenin Oedema; 25.0 mg/kg) [%] | % Protection 6th hour (Carrageenin Oedema; 25.0 mg/kg) [%] | % Protection 2nd hour (Carrageenin Oedema; 5.5 mg/kg) [%] | % Protection 4th hour (Carrageenin Oedema; 5.5 mg/kg) [%] | % Protection 6th hour (Carrageenin Oedema; 5.5 mg/kg) [%] | % Protection 2nd hour (Carrageenin Oedema; 11.0 mg/kg) [%] | % Protection 4th hour (Carrageenin Oedema; 11.0 mg/kg) [%] | % Protection 6th hour (Carrageenin Oedema; 11.0 mg/kg) [%]
CC(C)Cc1ccc(C(C)C(=O)NCCCC(O)(P(=O)(O)O)P(=O)(O)O)cc1 (stereo not shown) [Br--Ab, [4-[2-(4-Isobutylphenyl)-propionyl]-amino-1-hydroxybutylidene]-diphosphonicacid] | 0.62 ± 0.03 | 44.1 | 31 | 28 | 30 | 68 | 57 | 38 | – | – | – | – | – | –
CC(C)Cc1ccc(C(C)C(=O)NCCCCCC(O)(P(=O)(O)O)P(=O)(O)O)cc1 (stereo not shown) [Br--Ax, [6-[2-(4-Isobutylphenyl)-propionyl]-amino-1-hydroxyhexylidene]-diphosphonicacid] | 0.75 ± 0.17 | 32.4 | 41 | 36 | 48 | 42 | 21 | 56 | – | – | – | – | – | –
CC(C)Cc1ccc(C(C)C(=O)O)cc1 (stereo not shown) [Ibuprofen, ibuprofen, reference compound] | – | – | – | – | – | – | – | – | 18 | 3 | 4 | 21 | 25 | 28
